{
  "source": "ChEMBL document CHEMBL5154709",
  "about": "“Tetrazole derivatives bearing benzodiazepine moiety-synthesis and action mode against virulence of Candida albicans” (Eur J Med Chem, 2022)",
  "key": {"[1]": {"test_system": "Candida albicans", "assay": "Induction of cell cycle arrest in Candida albicans SC5314 assessed as accumulation of cells in G0/G1 phase at 16 ug/ml incubated fro 18 hrs by PI staining based flow cytometry method", "format": "functional, organism-based", "details": "dose 16.0 µg/ml"}, "[2]": {"test_system": "Candida albicans", "assay": "Antifungal activity against Candida albicans SC5314 assessed as inhibition of fungal growth at 0.5 ug/ml incubated for 48 hrs by M27-A3 based microdilution method relative to control", "format": "functional"}, "[3]": {"test_system": "Candida albicans", "assay": "Antifungal activity against Candida albicans SC5314 assessed as inhibition of fungal growth at 0.03125 ug/ml incubated for 48 hrs by M27-A3 based microdilution method relative to control", "format": "functional"}, "[4]": {"test_system": "Candida albicans", "assay": "Antifungal activity against Candida albicans SC5314 assessed as inhibition of fungal growth at 8 ug/ml incubated for 48 hrs by M27-A3 based microdilution method relative to control", "format": "functional"}, "[5]": {"test_system": "Candida albicans", "assay": "Induction of apoptosis in Candida albicans SC5314 protoplast cells assessed as necrotic cells at 16 ug/ml incubated for 18 hrs by PI/Annexin V staining based flow cytometry assay", "format": "functional", "details": "dose 16 µg/ml"}, "[6]": {"test_system": "Candida albicans", "assay": "Downregulation of HSP90 gene expression in Candida albicans cnb1delta/cnb1delta mutant at 2 ug/ml incubated for 6 hrs in presence of calcium chloride by RT-PCR analysis", "format": "functional", "details": "dose 2.0 µg/ml"}, "[7]": {"test_system": "Candida albicans", "assay": "Effect on HSP90 expression in Candida albicans BWP17 assessed as decrease in relative expression of HSP90 gene level at 2 ug/ml incubated for 18 hrs by RT-PCR analysis", "format": "functional", "details": "dose 2.0 µg/ml"}, "[8]": {"test_system": "Candida albicans", "assay": "Antifungal activity against Candida albicans SC5314 assessed as inhibition of fungal growth at 0.0625 ug/ml incubated for 48 hrs by M27-A3 based microdilution method relative to control", "format": "functional"}, "[9]": {"test_system": "Candida albicans", "assay": "Induction of reactive oxygen species generation in Candida albicans cnb1delta/cnb1delta mutant assessed as increase in ROS level at 16 ug/ml incubated for 18 hrs by DCFH-DA staining based flow cytometric analysis (reference value: 4.7+/- 5.9%)", "format": "functional", "details": "dose 16 µg/ml"}, "[10]": {"test_system": "Candida albicans", "assay": "Effect on HSP90 expression in Candida albicans cnb1delta/cnb1delta mutant assessed as fold increase in relative expression of HSP90 gene level at 2 ug/ml incubated for 18 hrs in presence of calcium chloride by RT-PCR analysis", "format": "functional", "details": "dose 2.0 µg/ml"}, "[11]": {"test_system": "Candida albicans", "assay": "Antifungal activity against Candida albicans SC5314 assessed as inhibition of fungal growth at 16 ug/ml incubated for 18 hrs by M27-A3 based microdilution method relative to control", "format": "functional"}, "[12]": {"test_system": "Candida albicans", "assay": "Induction of reactive oxygen species generation in Candida albicans BWP17 assessed as increase in ROS level at 16 ug/ml incubated for 18 hrs by DCFH-DA staining based flow cytometric analysis (reference value: 7.2+/- 0.2%)", "format": "functional", "details": "dose 16 µg/ml"}, "[13]": {"test_system": "Candida albicans", "assay": "Antifungal activity against Candida albicans SC5314 assessed as inhibition of fungal growth at 1 ug/ml incubated for 48 hrs by M27-A3 based microdilution method relative to control", "format": "functional"}, "[14]": {"test_system": "Candida albicans", "assay": "Antifungal activity against Candida albicans SC5314 assessed as inhibition of fungal growth at 4 ug/ml incubated for 48 hrs by M27-A3 based microdilution method relative to control", "format": "functional"}, "[15]": {"test_system": "Candida albicans", "assay": "Downregulation of HSP90 gene expression in Candida albicans cnb1delta/CNB1 mutant at 2 ug/ml incubated for 6 hrs in presence of calcium chloride by RT-PCR analysis", "format": "functional", "details": "dose 2.0 µg/ml"}, "[16]": {"test_system": "Candida albicans", "assay": "Antifungal activity against Candida albicans SC5314 assessed as inhibition of fungal growth at 0.25 ug/ml incubated for 18 hrs by M27-A3 based microdilution method relative to control", "format": "functional"}, "[17]": {"assay": "Cytotoxicity against human TR146 cells at more than 64 ug/ml measured after 24 hrs by XTT assay", "format": "toxicity, cell-based", "details": "tr146, 24 h, dose 64 µg/ml"}, "[18]": {"test_system": "Candida albicans", "assay": "Antifungal activity against Candida albicans SC5314 assessed as inhibition of fungal growth at 4 ug/ml incubated for 18 hrs by M27-A3 based microdilution method relative to control", "format": "functional"}, "[19]": {"assay": "Toxicity in Galleria mellonella larvae assessed as change in morphology at 16 ug/ml measured after 5 days by Hematoxylin and eosin staining", "details": "120 h, dose 16 µg/ml, time 5 day"}, "[20]": {"test_system": "Candida albicans", "assay": "Antifungal activity against Candida albicans SC5314 assessed as inhibition of fungal growth at 0.25 ug/ml incubated for 48 hrs by M27-A3 based microdilution method relative to control", "format": "functional"}, "[21]": {"test_system": "Candida albicans", "assay": "Antifungal activity against Candida albicans SC5314 assessed as inhibition of fungal growth at 0.125 ug/ml incubated for 18 hrs by M27-A3 based microdilution method relative to control", "format": "functional"}, "[22]": {"test_system": "Candida albicans", "assay": "Induction of macrophage-mediated Candida albicans SC5314 phagocytosis assessed as change in chitin at 16 ug/ml incubated for 18 hrs in presence of mouse RAW264.7 macrophages by PI/Acridine orange double staining based confocal laser scanning microscopic analysis", "format": "functional", "details": "dose 16.0 µg/ml"}, "[23]": {"test_system": "Candida albicans", "assay": "Effect on HSP90 expression in Candida albicans cnb1delta/cnb1delta mutant assessed as decrease in relative expression of HSP90 gene level at 2 ug/ml incubated for 18 hrs by RT-PCR analysis", "format": "functional", "details": "dose 2.0 µg/ml"}, "[24]": {"test_system": "Candida albicans", "assay": "Inhibition of ergosterol biosynthesis in Candida albicans SC5314 assessed as reduction in ergosterol level incubated for 18 hrs by spectrophotometric analysis", "format": "functional", "details": "dose 0.06-32 µg/ml, DDE = dose-dependent effect"}, "[25]": {"test_system": "Candida albicans", "assay": "Antifungal activity against Candida albicans SC5314 assessed as inhibition of fungal growth at 0.0625 ug/ml incubated for 18 hrs by M27-A3 based microdilution method relative to control", "format": "functional"}, "[26]": {"test_system": "Candida albicans", "assay": "Antifungal against Candida albicans cnb1delta/cnb1delta mutant biofilm assessed as oxidative stress by measuring appearance of spherical cells at 16 ug/ml incubated for 18 hrs by PI/acridine orange double staining based confocal laser scanning microscopic analysis", "format": "functional, organism-based", "details": "dose 16.0 µg/ml"}, "[27]": {"test_system": "Candida albicans", "assay": "Antifungal against Candida albicans SC5314 biofilm co-cultured with African green monkey Vero cells assessed as lysosomal membrane permeabilization at 16 ug/ml incubated for 18 hrs by PI/acridine orange double staining based confocal laser scanning microscopic analysis", "format": "functional, organism-based", "details": "dose 16.0 µg/ml"}, "[28]": {"test_system": "Candida tropicalis", "assay": "Inhibition of ergosterol biosynthesis in Candida tropicalis C129 assessed as reduction in ergosterol level incubated for 18 hrs by spectrophotometric analysis", "format": "functional", "details": "dose 0.06-32 µg/ml, DDE = dose-dependent effect"}, "[29]": {"test_system": "Candida albicans", "assay": "Antifungal activity against Candida albicans SC5314 assessed as inhibition of fungal growth at 0.5 ug/ml incubated for 18 hrs by M27-A3 based microdilution method relative to control", "format": "functional"}, "[30]": {"test_system": "Candida albicans", "assay": "Effect on HSP90 expression in Candida albicans cnb1delta/CNB1 mutant assessed as fold increase in relative expression of HSP90 gene level at 2 ug/ml incubated for 18 hrs in presence of calcium chloride by RT-PCR analysis", "format": "functional", "details": "dose 2.0 µg/ml"}, "[31]": {"test_system": "Candida albicans", "assay": "Antifungal against Candida albicans cnb1delta/cnb1delta mutant biofilm assessed as apoptotic cells by measuring lysosomal membrane permeabilization at 16 ug/ml incubated for 18 hrs by PI/acridine orange double staining based confocal laser scanning microscopic analysis", "format": "functional, organism-based", "details": "dose 16.0 µg/ml"}, "[32]": {"test_system": "Candida albicans", "assay": "Fungicidal activity against Candida albicans SC5314 assessed as inhibition of fungal growth incubated for 48 hrs by M27-A3 based microdilution method", "format": "functional"}, "[33]": {"test_system": "Vero", "assay": "Cytotoxicity against African green monkey Vero cells at > 64 ug/ml measured after 24 hrs by XTT assay", "format": "toxicity, cell-based", "details": "chlorocebus sabaeus, dose > 64 µg/ml"}},
  "note": "The source made the active and inactive calls. The rule behind the calls is not given here.",
  "data": [
    {"smiles": "O=C1CN=C(c2ccccc2Br)c2cc(F)ccc2N1CCCn1nnc(-c2ccccc2Cl)n1", "values": [
      {"measurement": "Activity", "setting": "[1]", "result": "Active"},
      {"measurement": "inhibition at 0.5 µg/mL", "setting": "[2]", "result": 99.3, "unit": "%"},
      {"measurement": "inhibition at 0.03125 µg/mL", "setting": "[3]", "result": 100, "unit": "%"},
      {"measurement": "inhibition at 8 µg/mL", "setting": "[4]", "result": 99.1, "unit": "%"},
      {"measurement": "Activity", "setting": "[5]", "result": 78.5, "unit": "%"},
      {"measurement": "Activity", "setting": "[6]", "result": "Active"},
      {"measurement": "Activity", "setting": "[7]", "result": "Active"},
      {"measurement": "inhibition at 0.0625 µg/mL", "setting": "[8]", "result": 99.4, "unit": "%"},
      {"measurement": "Activity", "setting": "[9]", "result": 2.95, "unit": "%"},
      {"measurement": "fold change (FC)", "setting": "[10]", "result": 4},
      {"measurement": "inhibition at 16 µg/mL", "setting": "[11]", "result": 100, "unit": "%"},
      {"measurement": "Activity", "setting": "[12]", "result": 3.7, "unit": "%"},
      {"measurement": "inhibition at 1 µg/mL", "setting": "[13]", "result": 99.2, "unit": "%"},
      {"measurement": "inhibition at 4 µg/mL", "setting": "[14]", "result": 99.3, "unit": "%"},
      {"measurement": "Activity", "setting": "[15]", "result": "Active"},
      {"measurement": "inhibition at 0.25 µg/mL", "setting": "[16]", "result": 100, "unit": "%"},
      {"measurement": "Activity", "setting": "[17]", "result": "Non-Toxic"},
      {"measurement": "inhibition at 4 µg/mL", "setting": "[18]", "result": 99.3, "unit": "%"},
      {"measurement": "Activity", "setting": "[19]", "result": "Non-Toxic"},
      {"measurement": "inhibition at 0.25 µg/mL", "setting": "[20]", "result": 100, "unit": "%"},
      {"measurement": "inhibition at 0.125 µg/mL", "setting": "[21]", "result": 99.3, "unit": "%"},
      {"measurement": "Activity", "setting": "[22]", "result": "Active"},
      {"measurement": "Activity", "setting": "[23]", "result": "Active"},
      {"measurement": "Activity", "setting": "[24]", "result": "Dde"},
      {"measurement": "inhibition at 0.0625 µg/mL", "setting": "[25]", "result": 99.2, "unit": "%"},
      {"measurement": "Activity", "setting": "[26]", "result": "Active"},
      {"measurement": "Activity", "setting": "[27]", "result": "Active"},
      {"measurement": "Activity", "setting": "[28]", "result": "Dde"},
      {"measurement": "inhibition at 0.5 µg/mL", "setting": "[29]", "result": 99.2, "unit": "%"},
      {"measurement": "fold change (FC)", "setting": "[30]", "result": 4},
      {"measurement": "Activity", "setting": "[31]", "result": "Active"},
      {"measurement": "inhibition (INH)", "setting": "[32]", "result": 99.6, "unit": "%"},
      {"measurement": "Activity", "setting": "[33]", "result": "Toxic"}
    ]}
  ]
}
